Laboratory results: PMC3125149, “SCYX-7158, an Orally-Active Benzoxaborole for the Treatment of Stage 2 Human African Trypanosomiasis” (PLoS Neglected Tropical Diseases, 2011)
Converted amounts (≈) assume the structure as drawn.

Experiments:
[1] = test system: T. b. rhodesiense STIB 900; assay: In vitro compound sensitivity assay (resazurin viability); format: cell-based; conditions: Trypanosoma brucei; 72 h incubation; n = 1
Text: The bloodstream-form T. b. brucei 427 strain was obtained from Dr. K. Stuart (Seattle Biomedical Research Institute, Seattle, WA) and was used for routine assessment of compound sensitivity in vitro. Additional strains used in vitro include T. b. rhodesiense STIB900, isolated in 1992 from a patient in Tanzania, and T. b. gambiense 108R, isolated from a patient in Democratic Republic of Congo in 2005. T. b. brucei EATRO 110 was a generous gift from the late William Trager of the Rockefeller University. T. b. brucei TREU 667 strains were kindly provided by F. W. Jennings at the University of Glasgow. Both T. b. brucei EATRO 110 and TREU 667 were cultured according to previously described conditions and used for in vivo studies.[18], [19]
T. b. brucei was cultured in complete HMI-9 medium,[20] which contains 10% fetal bovine serum (FBS) (Invitrogen, Carlsbad, CA), 10% Serum Plus medium (SAFC Biosciences, Lenexa, KS), and 100 units/mL penicillin and 0.1 mg/mL streptomycin. The trypanosomes were propagated in T-25 vented cap flasks (Corning Inc., Lowell, MA) at 37°C and 5% CO2 with humidity. To ensure log growth phase, trypanosomes were sub-cultured at appropriate dilutions (typically 1∶100) every 2–3 days in fresh HMI-9 medium. T. b. rhodesiense parasites were grown in MEM medium with Earle's salts supplemented with 15% horse serum. For T. b. gambiense, the MEM medium was supplemented with 5% heat-inactivated fetal calf serum (FCS) and 15% human serum.[21] L929 mouse fibroblast cells (ATCC CCL1, American Type Culture Collection, Rockville, MD) were used to determine parasite versus mammalian cell selectivity. Cells were cultured in Dulbecco's Modified Eagle Medium (DMEM), supplemented with 10% FBS, L-glutamine and 100 units/mL penicillin and 0.1 mg/mL streptomycin. MDCKII-hMDR1 cells were generously provided by P. Borst at the Netherlands Kancer Institute. Cells were cultured in DMEM with Glutamax, 10% (v/v) FBS, and 100 units/mL penicillin and 0.1 mg/mL streptomycin. Cell monolayers were fed with cell culture media 24 h after seeding and used for permeability studies 3 days later.
Compounds to be tested were serially diluted in DMSO and added to 96-well plates to give final concentrations ranging from 5 to 0.01 µg/mL. T. b. brucei parasites in the log phase of growth were diluted in HMI-9 media and added to each well for a final concentration of 1×10^4 parasites per well. For the sensitivity assays using T. b. rhodesiense and T. b. gambiense, pararasites were cultured in MEM supplemented with Baltz components (8), diluted in the aforementioned culture media, and added to each well at a density of 1×10^3 cells/well. The final concentration of DMSO was 0.5% and the total volume was 100 µL/well. After a 72 h incubation, resazurin (Sigma-Aldrich, St. Louis, MO) was added to each well [20 µL of 25 mg/100 mL stock in phosphate buffered saline (PBS)] and incubated for an additional 4–6 h.[22] To assess cell viability, fluorescence was quantified using an EnVision Multilabel Plate Reader (Perkin Elmer, Waltham, MA) at an excitation wavelength of 530 nm and emission of 590 nm. Triplicate data points were averaged to generate sigmoidal dose-response curves and determine IC50 values using XLfit curve fitting software from IDBS (Guilford, UK). The IC50 is defined as the amount of compound required to decrease parasite or cell viability by 50% compared to those grown in the absence of the test compound. […]

T. b. brucei TREU 667 = assay: Efficacy in mouse model for chronic (CNS, stage 2) HAT; format: in vivo
Protocol: For evaluation against late-stage CNS infections, a chronic disease inducing strain (TREU 667) of T. b. brucei was used.[19] Mice were divided into groups of ten and each animal was infected i.p. with 1×10^4 parasites (200 μL). […] Louis, MO) administered by i.p. injection on day 4 after infection. […] Animals were checked for parasitemia once per week and were immediately removed from the cages and euthanized upon recrudescence. Animals were considered to be cured of a CNS infection if they were […] for at least 180 days after the end of the treatment period.

Aqueous solubility = format: physicochemical; conditions: pH 7.4 PBS
Text: Table 3 In vitro physicochemical and ADME properties of SCYX-7158. | column: Value

CYP1A2 = target: T1, CYP1A2 (Homo sapiens, UniProt P05177); assay: P450-Glo cytochrome P450 inhibition; format: biochemical; conditions: human recombinant CYP1A2
T1 construct: purchased Promega Inc., Madison, WI
T1 sequence (P05177 whole entry): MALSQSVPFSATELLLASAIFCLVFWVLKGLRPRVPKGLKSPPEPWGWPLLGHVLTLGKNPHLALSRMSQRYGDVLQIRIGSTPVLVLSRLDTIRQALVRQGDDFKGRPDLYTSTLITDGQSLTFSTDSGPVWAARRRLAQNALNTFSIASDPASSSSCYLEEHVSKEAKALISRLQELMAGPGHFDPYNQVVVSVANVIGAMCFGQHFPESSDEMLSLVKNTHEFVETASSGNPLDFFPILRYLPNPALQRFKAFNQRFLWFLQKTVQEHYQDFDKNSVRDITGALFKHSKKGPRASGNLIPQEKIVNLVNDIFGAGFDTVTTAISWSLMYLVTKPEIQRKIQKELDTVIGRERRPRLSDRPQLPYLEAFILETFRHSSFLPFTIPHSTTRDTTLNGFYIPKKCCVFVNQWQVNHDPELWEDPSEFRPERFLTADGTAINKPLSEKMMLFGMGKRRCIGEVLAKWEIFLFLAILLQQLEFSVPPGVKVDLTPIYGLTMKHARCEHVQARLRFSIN
Protocol: (§1) The potential for compound to exert drug-drug interactions that are mediated through inhibition of cytochrome P450 activities was assessed using P450-Glo assay kits (Promega Inc., Madison, WI). Assays for human cytochrome P450 isoforms 3A4, 1A2, 2C9, 2C19, and 2D6 were performed in triplicate according to the manufacturer's instructions over the concentration range 1–100 µM (n = 6 levels). Briefly, SCYX-7158 was added to membrane preparations containing human recombinant CYP450 enzymes together with luminogenic substrates specific to each isoform. Specific CYP450 inhibitors were included as positive controls (ketoconazole, CYP3A4; alpha-napthoflavone, 1A2; sulfaphenazole, CYP2C9; troglitazone, 2C19, and quinidine, CYP2D6). Reactions were initiated by addition of NADPH-regenerating solution and were allowed to incubate for an additional 15–30 min (isoform dependent). Luciferin detection reagent, containing the luciferin-labeled probe substrate, was then added. Luminescence was recorded on an EnVision Multilabel Plate Reader. Calculation of IC50 concentrations for each enzyme was determined using GraphPad Prism (V5.01).

CYP2C19 = target: T2, CYP2C19 (Homo sapiens, UniProt P33261); assay: P450-Glo cytochrome P450 inhibition; format: biochemical; conditions: human recombinant CYP2C19
T2 construct: purchased Promega Inc., Madison, WI
T2 sequence (P33261 whole entry): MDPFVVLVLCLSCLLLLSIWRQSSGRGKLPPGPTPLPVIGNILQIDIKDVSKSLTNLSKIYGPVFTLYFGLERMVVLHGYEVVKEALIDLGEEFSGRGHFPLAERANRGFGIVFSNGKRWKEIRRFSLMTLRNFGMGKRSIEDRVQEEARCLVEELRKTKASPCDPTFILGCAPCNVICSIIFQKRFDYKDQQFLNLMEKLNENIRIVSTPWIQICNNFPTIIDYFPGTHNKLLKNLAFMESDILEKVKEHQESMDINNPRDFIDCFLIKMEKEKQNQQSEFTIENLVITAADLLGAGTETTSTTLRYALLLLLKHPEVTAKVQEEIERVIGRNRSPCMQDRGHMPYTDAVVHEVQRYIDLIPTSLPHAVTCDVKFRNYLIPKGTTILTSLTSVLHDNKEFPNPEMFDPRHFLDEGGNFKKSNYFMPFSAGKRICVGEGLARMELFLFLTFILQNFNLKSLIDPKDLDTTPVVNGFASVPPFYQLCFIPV
Protocol: as §1

CYP2C9 = target: T3, CYP2C9 (Homo sapiens, UniProt P11712); assay: P450-Glo cytochrome P450 inhibition; format: biochemical; conditions: human recombinant CYP2C9
T3 construct: purchased Promega Inc., Madison, WI
T3 sequence (P11712 whole entry): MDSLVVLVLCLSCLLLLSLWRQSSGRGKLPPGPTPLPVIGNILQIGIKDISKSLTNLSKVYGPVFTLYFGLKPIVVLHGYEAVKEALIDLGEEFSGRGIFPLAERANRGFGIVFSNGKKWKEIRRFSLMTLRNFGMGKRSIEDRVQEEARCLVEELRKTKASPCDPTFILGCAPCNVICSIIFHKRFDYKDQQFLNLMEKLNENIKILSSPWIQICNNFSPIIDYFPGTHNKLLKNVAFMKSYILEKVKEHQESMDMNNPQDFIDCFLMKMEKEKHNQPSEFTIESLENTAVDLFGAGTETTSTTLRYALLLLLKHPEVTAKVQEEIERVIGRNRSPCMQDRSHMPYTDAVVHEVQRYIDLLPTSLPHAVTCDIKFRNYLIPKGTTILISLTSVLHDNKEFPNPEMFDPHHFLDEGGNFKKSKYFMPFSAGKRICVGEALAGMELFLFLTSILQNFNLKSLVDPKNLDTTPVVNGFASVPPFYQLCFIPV
Protocol: as §1

CYP2D6 = target: T4, CYP2D6 (Homo sapiens, UniProt P10635); assay: P450-Glo cytochrome P450 inhibition; format: biochemical; conditions: human recombinant CYP2D6
T4 construct: purchased Promega Inc., Madison, WI
T4 sequence (P10635 whole entry): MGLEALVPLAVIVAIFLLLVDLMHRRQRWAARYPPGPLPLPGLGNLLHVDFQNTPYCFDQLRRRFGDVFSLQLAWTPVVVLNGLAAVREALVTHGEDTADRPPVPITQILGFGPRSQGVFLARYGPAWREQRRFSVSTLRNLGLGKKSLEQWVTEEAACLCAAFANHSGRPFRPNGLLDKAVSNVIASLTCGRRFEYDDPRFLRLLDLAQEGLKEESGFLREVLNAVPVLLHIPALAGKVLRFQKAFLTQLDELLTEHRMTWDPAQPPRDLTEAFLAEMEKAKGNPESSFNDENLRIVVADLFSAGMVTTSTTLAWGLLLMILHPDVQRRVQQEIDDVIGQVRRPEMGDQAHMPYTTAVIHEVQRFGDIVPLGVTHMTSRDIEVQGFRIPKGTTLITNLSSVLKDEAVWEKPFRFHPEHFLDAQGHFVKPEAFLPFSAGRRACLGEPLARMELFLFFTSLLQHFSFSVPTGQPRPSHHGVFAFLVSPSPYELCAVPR
Protocol: as §1

CYP3A4 = target: T5, CYP3A4 (Homo sapiens, UniProt P08684); assay: P450-Glo cytochrome P450 inhibition; format: biochemical; conditions: human recombinant CYP3A4
T5 construct: purchased Promega Inc., Madison, WI
T5 sequence (P08684 whole entry): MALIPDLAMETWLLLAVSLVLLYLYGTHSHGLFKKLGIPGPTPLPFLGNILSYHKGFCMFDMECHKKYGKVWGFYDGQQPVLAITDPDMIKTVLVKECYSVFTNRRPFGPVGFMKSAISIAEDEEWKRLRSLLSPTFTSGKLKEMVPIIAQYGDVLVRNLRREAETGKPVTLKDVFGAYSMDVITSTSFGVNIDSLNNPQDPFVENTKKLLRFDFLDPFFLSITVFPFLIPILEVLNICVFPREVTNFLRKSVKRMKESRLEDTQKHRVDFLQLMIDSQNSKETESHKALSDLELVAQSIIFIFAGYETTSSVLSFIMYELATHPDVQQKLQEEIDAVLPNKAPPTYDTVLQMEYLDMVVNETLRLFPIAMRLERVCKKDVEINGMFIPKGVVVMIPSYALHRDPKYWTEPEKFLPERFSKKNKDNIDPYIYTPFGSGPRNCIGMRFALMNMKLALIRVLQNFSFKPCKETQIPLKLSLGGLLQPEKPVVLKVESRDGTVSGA
Protocol: as §1

[2] = target: T6, hERG channel expressed in HEK-293 cells (Homo sapiens, UniProt Q12809); assay: hERG whole-cell patch clamp; format: cell-based
T6 construct: expressed in transfected cells; host or cells: HEK-293
T6 sequence (Q12809 whole entry): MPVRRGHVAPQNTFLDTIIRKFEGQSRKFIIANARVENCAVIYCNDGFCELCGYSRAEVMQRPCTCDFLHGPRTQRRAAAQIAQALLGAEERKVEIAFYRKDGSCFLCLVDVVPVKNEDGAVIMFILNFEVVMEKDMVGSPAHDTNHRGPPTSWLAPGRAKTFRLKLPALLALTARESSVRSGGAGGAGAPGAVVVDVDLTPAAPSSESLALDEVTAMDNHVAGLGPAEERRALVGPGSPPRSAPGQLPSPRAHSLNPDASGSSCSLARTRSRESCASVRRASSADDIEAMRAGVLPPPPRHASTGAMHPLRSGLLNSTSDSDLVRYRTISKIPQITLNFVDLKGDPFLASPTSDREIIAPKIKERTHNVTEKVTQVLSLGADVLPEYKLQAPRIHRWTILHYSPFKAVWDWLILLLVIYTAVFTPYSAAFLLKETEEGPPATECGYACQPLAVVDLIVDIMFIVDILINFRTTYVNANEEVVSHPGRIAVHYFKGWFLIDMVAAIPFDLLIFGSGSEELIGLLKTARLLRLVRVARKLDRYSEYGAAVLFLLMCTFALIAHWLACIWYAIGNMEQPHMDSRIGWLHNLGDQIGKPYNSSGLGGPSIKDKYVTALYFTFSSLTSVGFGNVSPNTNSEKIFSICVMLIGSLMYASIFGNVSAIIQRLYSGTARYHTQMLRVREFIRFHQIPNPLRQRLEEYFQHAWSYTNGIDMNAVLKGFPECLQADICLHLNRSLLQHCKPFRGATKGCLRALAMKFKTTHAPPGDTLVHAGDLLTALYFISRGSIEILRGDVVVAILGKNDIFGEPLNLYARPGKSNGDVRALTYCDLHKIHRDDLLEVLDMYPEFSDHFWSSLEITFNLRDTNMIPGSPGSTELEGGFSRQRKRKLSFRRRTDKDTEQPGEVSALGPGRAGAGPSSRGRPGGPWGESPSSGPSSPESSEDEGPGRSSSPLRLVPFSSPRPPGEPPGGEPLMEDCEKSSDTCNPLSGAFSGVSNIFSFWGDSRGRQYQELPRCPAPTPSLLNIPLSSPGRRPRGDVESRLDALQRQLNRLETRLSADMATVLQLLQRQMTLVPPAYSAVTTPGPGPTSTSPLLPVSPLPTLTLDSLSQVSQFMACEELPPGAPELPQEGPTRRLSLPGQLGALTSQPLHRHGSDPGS

CC1(C)OB(O)c2cc(NC(=O)c3ccc(F)cc3C(F)(F)F)ccc21 [SCYX-7158]
IC50 [1]: 0.294 mg/L (≈ 0.801 µM) | cure rate (T. b. brucei TREU 667; 12.5 mg/kg once daily oral over 7 days starting day 21 after infection): 80% | cure rate (T. b. brucei TREU 667; 25 mg/kg once daily oral, 7 doses, starting day 21 after infection): 100% | lowest effective oral dose in murine stage 2 study (T. b. brucei TREU 667; QD×7 days, oral): 12.5 mg/kg | solubility (Aqueous solubility): 25 µM (≈ 9.18 µg/mL) | IC50 (CYP1A2): > 100 µM | IC50 (CYP2C19): 23.1 µM | IC50 (CYP2C9): 23.5 µM | IC50 (CYP2D6): 21.1 µM | IC50 (CYP3A4): 47.4 µM | mean fractional block ([2]; 30 µM): 0.108±0.037 | mean fractional block ([2]; 100 µM): 0.198±0.018 | IC50 ([2]; indicated by patch clamp fractional block): > 100 µM
